Measured values: patent US20260098030A1, “NEGATIVE ALLOSTERIC MODULATORS OF METABOTROPIC GLUTAMATE RECEPTOR 2” (Vanderbilt University, priority 2022, published 2026)

What follows are compounds tested against T1, rat mGlu2 (Rattus norvegicus, UniProt P31421) (assay: mGlu GIRK cell-based thallium flux assay, rat mGlu2). Details: HEK-293 cells co-expressing rat mGlu2 and GIRK, EC80 glutamate.
T1 construct: expressed in transfected cells; host or cells: HEK-293 cells stably co-expressing GIRK channels
T1 sequence (P31421 19-872): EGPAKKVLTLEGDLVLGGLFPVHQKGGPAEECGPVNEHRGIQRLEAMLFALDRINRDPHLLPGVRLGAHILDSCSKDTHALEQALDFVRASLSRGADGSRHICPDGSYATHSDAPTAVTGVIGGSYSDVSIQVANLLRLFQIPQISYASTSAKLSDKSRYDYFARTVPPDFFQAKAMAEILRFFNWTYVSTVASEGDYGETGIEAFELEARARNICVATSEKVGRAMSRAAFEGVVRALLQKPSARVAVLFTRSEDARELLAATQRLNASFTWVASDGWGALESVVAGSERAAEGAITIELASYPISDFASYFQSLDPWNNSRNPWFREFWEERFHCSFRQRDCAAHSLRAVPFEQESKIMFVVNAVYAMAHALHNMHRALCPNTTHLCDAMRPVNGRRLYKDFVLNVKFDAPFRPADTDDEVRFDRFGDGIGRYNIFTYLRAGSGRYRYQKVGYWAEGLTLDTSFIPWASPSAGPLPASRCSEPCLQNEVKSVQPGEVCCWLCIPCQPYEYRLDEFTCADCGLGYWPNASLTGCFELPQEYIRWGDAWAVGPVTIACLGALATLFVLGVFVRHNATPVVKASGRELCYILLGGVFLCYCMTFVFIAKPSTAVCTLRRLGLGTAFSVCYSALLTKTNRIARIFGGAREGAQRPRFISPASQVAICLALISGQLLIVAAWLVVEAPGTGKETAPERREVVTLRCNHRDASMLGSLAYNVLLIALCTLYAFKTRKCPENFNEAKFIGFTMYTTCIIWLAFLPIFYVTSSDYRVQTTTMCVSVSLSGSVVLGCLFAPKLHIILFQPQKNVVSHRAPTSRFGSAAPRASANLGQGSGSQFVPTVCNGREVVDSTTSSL
Experimental: Human embryonic kidney (HEK-293) cell lines stably co-expressing human or rat mGlu2 and G protein-coupled inwardly rectifying potassium (GIRK) channels, or human mGlu3 and GIRK, were used for in vitro evaluation of compound activity in thallium flux assay using a fluorescent thallium indicator dye.
The day before the assay, GIRK cells co-expressing human mGlu3, human or rat mGlu2, as described above, were plated in black-walled, clear-bottomed, amine-coated 384-well plates at a density of 15,000 cells/20 μL/well in the assay medium (glutamine-depleted basal DMEM supplemented with 10% dialyzed FBS, 20 mM HEPES, 1 mM sodium pyruvate). Cells were incubated at 37° C. in the presence of 5% CO2. The next day, assay buffer (Hanks balanced salt solution, 20 mM HEPES, 4.16 mM sodium bicarbonate, pH 7.2) was prepared to dilute compounds and Thallos AM fluorescent dye solution. The 2× Thallos dye solution (final concentration 0.34 μM to the cells) was prepared by mixing the dye stock (2.97 mM in DMSO) to 1:1 with 10% pluronic acid before adding to the assay buffer. Cells were washed with assay buffer using a microplate washer to remove the medium, resulting in 20 μL of buffer remaining in each well. Immediately, 20 μL of 2× Thallos dye solution was added to cells, and incubated for one hour at 25° C. During the cell dye loading incubation period, a 10-point concentration serial dilution of compound was created from a 10 mM DMSO compound stock by performing a 1:3 serial dilution in DMSO using the Bravo liquid handler. The 2× compound plate was generated by transferring 0.24 μL of the diluted compound in each well to a daughter plate using an Echo acoustic liquid handler. This is further diluted in 40 μL assay buffer, resulting in a range from 30 μM to 1.5 nM final concentration in the assay. The agonist plate (5×) was prepared to include EC80 glutamate concentration (a concentration to elicit 80% of a maximally effective glutamate concentration) in thallium buffer (125 mM […], 1 mM magnesium sulfate, 1.8 mM calcium sulfate, 5 mM glucose, 10 mM HEPES, pH 7.2, 12.5 mM thallium sulfate).
After dye-loading, cell plates were washed with assay buffer to remove excess extracellular dye using a microplate washer, resulting in 20 μL of buffer remaining in each well. After a ten-minute equilibration period, cell, compound and agonist plates were loaded into a Hamamatsu μCell kinetic imaging plate reader equipped with liquid handler to monitor fluorescence changes at 480 nm excitation and 540 nm emission settings. Briefly, after collection of baseline fluorescence, 20 μL of compound was added and incubated for two minutes and twenty seconds. This is immediately followed by adding 10 μL of glutamate-thallium buffer to the wells containing compound. The fluorescent signal was monitored an additional 2.5 minutes after the glutamate addition. Multiple reference wells containing no compound received either no glutamate (for a baseline reference), EC80 glutamate, or ECmax glutamate (for normalization to maximum response). Fluorescence was measured throughout the experiment at a frequency of 1 measurement per every 2 seconds before the glutamate addition and a frequency of 1 measurement per every 1 second after the glutamate addition. Each compound concentration series occurred one time in each plate, and replicates from two or three plates were used in each experimental run. Thallium solutions were handled and disposed of according to guidelines from the Vanderbilt University Chemical Safety department.
Data were normalized using a static ratio function (F/F0) by dividing every fluorescent measurement by the initial fluorescent value for the corresponding well. The increase in signal resulting from the glutamate/thallium addition of the second add was measured by determining the slope from 3 seconds to 13 seconds after the addition. […]
`O=C1NCc2cc(-c3cccnc3F)c(-c3ccc(F)cc3F)cc21` [Compound 72, 6-(2,4-difluorophenyl)-5-(2-fluoropyridin-3-yl)isoindolin-1-one] showed an IC50 of 999 nM. `Cc1ncccc1-c1cc2c(cc1-c1ccc(F)cc1F)C(=O)NC2` [Compound 73, 6-(2,4-difluorophenyl)-5-(2-methylpyridin-3-yl)isoindolin-1-one] gave an IC50 of 4410 nM. In the case of `CC1(C)CC(c2cc3c(cc2-c2ccc(F)cc2)C(=O)NC3)CC(C)(C)N1` [Compound 75, 6-(4-fluorophenyl)-5-(2,2,6,6-tetramethylpiperidin-4-yl)isoindolin-1-one], the IC50 is reported as greater than 10000 nM. `CC1(C)CNCC=C1c1cc2c(cc1-c1ccc(F)cc1)C(=O)NC2` [Compound 76, 5-(3,3-dimethyl-1,2,3,6-tetrahydropyridin-4-yl)-6-(4-fluorophenyl)isoindolin-1-one] gave an IC50 greater than 10000 nM. `CC1CNCCC1c1cc2c(cc1-c1ccc(F)cc1)C(=O)NC2` (stereo not shown) [Compound 77, 6-(4-fluorophenyl)-5-(3-methylpiperidin-4-yl)isoindolin-1-one] showed an IC50 greater than 10000 nM. In the case of `O=C1NCc2cc(C3CCCNC3)c(-c3ccc(F)cc3)cc21` (stereo not shown) [Compound 78, 6-(4-fluorophenyl)-5-(piperidin-3-yl)isoindolin-1-one], the IC50 is reported as greater than 10000 nM. `O=C1NCc2cc(-c3ccc(C(F)(F)F)nc3)c(-c3ccc(F)cc3F)cc21` [Compound 79, 6-(2,4-difluorophenyl)-5-(6-(trifluoromethyl)pyridin-3-yl)isoindolin-1-one] gave an IC50 of 1860 nM. `Cn1ccc(-c2cc3c(cc2-c2ccc(F)cc2F)C(=O)NC3)n1` [Compound 80, 6-(2,4-difluorophenyl)-5-(1-methyl-1H-pyrazol-3-yl)isoindolin-1-one] gave an IC50 of 1090 nM. In the case of `Cc1cc(F)ncc1-c1cc2c(cc1-c1ccc(F)cc1F)C(=O)NC2` [Compound 81, 6-(2,4-difluorophenyl)-5-(6-fluoro-4-methylpyridin-3-yl)isoindolin-1-one], the IC50 is reported as 1140 nM. `O=C1NCc2cc(C3=CCNC3)c(-c3ccc(F)cc3)cc21` [Compound 82, 5-(2,5-dihydro-1H-pyrrol-3-yl)-6-(4-fluorophenyl)isoindolin-1-one] was tested, and the IC50 was greater than 10000 nM. `O=C1NCc2cc(C3CCNC3)c(-c3ccc(F)cc3)cc21` (stereo not shown) [Compound 83, 6-(4-fluorophenyl)-5-(pyrrolidin-3-yl)isoindolin-1-one] was tested, and the IC50 was greater than 10000 nM. Work on `CC1CC(c2cc3c(cc2-c2ccc(F)cc2)C(=O)NC3)=CCN1` (stereo not shown) [Compound 84, 6-(4-fluorophenyl)-5-(2-methyl-1,2,3,6-tetrahydropyridin-4-yl)isoindolin-1-one] yielded an IC50 greater than 10000 nM. `CC1CC(c2cc3c(cc2-c2ccc(F)cc2)C(=O)NC3)CCN1` (stereo not shown) [Compound 85, 6-(4-fluorophenyl)-5-(2-methylpiperidin-4-yl)isoindolin-1-one] showed an IC50 greater than 10000 nM. Work on `O=C1NCc2cc(-c3cnc(C(F)(F)F)nc3)c(-c3ccc(F)cc3F)cc21` [Compound 86, 6-(2,4-difluorophenyl)-5-(2-(trifluoromethyl)pyrimidin-5-yl)isoindolin-1-one] yielded an IC50 greater than 10000 nM. With `O=C1NCc2cc(-c3cccnc3)c(-c3ccc(F)cc3F)cc21` [Compound 88, 6-(2,4-difluorophenyl)-5-(pyridin-3-yl)isoindolin-1-one] the IC50 was 1650 nM. `O=C1NCc2cc(-c3ccc4[nH]ccc4c3)c(-c3ccc(F)cc3F)cc21` [Compound 89, 6-(2,4-difluorophenyl)-5-(1H-indol-5-yl)isoindolin-1-one] was tested, and the IC50 was 925 nM. `COc1ccc(-c2cc3c(cc2-c2ccc(F)cc2F)C(=O)NC3)cc1C#N` [Compound 92, 5-(6-(2,4-difluorophenyl)-1-oxoisoindolin-5-yl)-2-methoxybenzonitrile] was tested, and the IC50 was 618 nM. `N#Cc1cc(-c2cc3c(cc2-c2ccc(F)cc2F)C(=O)NC3)ccc1F` [Compound 93, 5-(6-(2,4-difluorophenyl)-1-oxoisoindolin-5-yl)-2-fluorobenzonitrile] gave an IC50 of 1500 nM. Compound `COc1cc(C#N)cc(-c2cc3c(cc2-c2ccc(F)cc2F)C(=O)NC3)c1` [Compound 95, 3-(6-(2,4-difluorophenyl)-1-oxoisoindolin-5-yl)-5-methoxybenzonitrile] has an IC50 of 1440 nM. `Cc1cc(-c2cc3c(cc2-c2ccc(F)cc2F)C(=O)NC3)c(C)n1C` [Compound 97, 6-(2,4-difluorophenyl)-5-(1,2,5-trimethyl-1H-pyrrol-3-yl)isoindolin-1-one] gave an IC50 of 938 nM. In the case of `N#Cc1cccc(-n2cc(-c3cc4c(cc3-c3ccc(F)cc3F)C(=O)NC4)cn2)c1` [Compound 99, 3-(4-(6-(2,4-difluorophenyl)-1-oxoisoindolin-5-yl)-1H-pyrazol-1-yl)benzonitrile], the IC50 is reported as greater than 10000 nM. For `COc1ncccc1-c1cc2c(cc1-c1ccc(F)cc1F)C(=O)NC2` [Compound 100, 6-(2,4-difluorophenyl)-5-(2-methoxypyridin-3-yl)isoindolin-1-one], the IC50 was 1120 nM. In the case of `O=C1NCc2cc(-c3cccnc3N3CCCC3)c(-c3ccc(F)cc3F)cc21` [Compound 102, 6-(2,4-difluorophenyl)-5-(2-(pyrrolidin-1-yl)pyridin-3-yl)isoindolin-1-one], the IC50 is reported as greater than 10000 nM. `N#Cc1ccc(-c2cc3c(cc2-c2ccc(F)cc2F)C(=O)NC3)c(F)c1` [Compound 103, 4-(6-(2,4-difluorophenyl)-1-oxoisoindolin-5-yl)-3-fluorobenzonitrile] gave an IC50 of 2880 nM. Compound `N#Cc1cc(-c2cc3c(cc2-c2ccc(F)cc2F)C(=O)NC3)ccn1` [Compound 104, 4-(6-(2,4-difluorophenyl)-1-oxoisoindolin-5-yl)picolinonitrile] has an IC50 greater than 10000 nM. `COc1cc(F)ccc1-c1cc2c(cc1-c1ccc(F)cc1F)C(=O)NC2` [Compound 105, 6-(2,4-difluorophenyl)-5-(4-fluoro-2-methoxyphenyl)isoindolin-1-one] gave an IC50 of 4490 nM. Compound `N#Cc1cc(F)cc(-c2cc3c(cc2-c2ccc(F)cc2F)C(=O)NC3)c1` [Compound 106, 3-(6-(2,4-difluorophenyl)-1-oxoisoindolin-5-yl)-5-fluorobenzonitrile] has an IC50 of 1420 nM. For `N#Cc1cccc(-c2cc3c(cc2-c2ccc(F)cc2F)C(=O)NC3)c1` [Compound 107, 3-(6-(2,4-difluorophenyl)-1-oxoisoindolin-5-yl)benzonitrile], the IC50 was 589 nM. `Cc1c(C#N)cccc1-c1cc2c(cc1-c1ccc(F)cc1F)C(=O)NC2` [Compound 109, 3-(6-(2,4-difluorophenyl)-1-oxoisoindolin-5-yl)-2-methylbenzonitrile] gave an IC50 of 1130 nM. `O=C1NCc2cc(-c3cccnc3C(F)(F)F)c(-c3ccc(F)cc3F)cc21` [Compound 110, 6-(2,4-difluorophenyl)-5-(2-(trifluoromethyl)pyridin-3-yl)isoindolin-1-one] was tested, and the IC50 was greater than 10000 nM. `N#Cc1ccc(-n2cc(-c3cc4c(cc3-c3ccc(F)cc3F)C(=O)NC4)cn2)cc1` [Compound 111, 4-(4-(6-(2,4-difluorophenyl)-1-oxoisoindolin-5-yl)-1H-pyrazol-1-yl)benzonitrile] gave an IC50 greater than 10000 nM. In the case of `Cc1nnc(-c2ccc(-c3cc4c(cc3-c3ccc(F)cc3F)C(=O)NC4)cc2F)o1` [Compound 112, 6-(2,4-difluorophenyl)-5-(3-fluoro-4-(5-methyl-1,3,4-oxadiazol-2-yl)phenyl)isoindolin-1-one], the IC50 is reported as greater than 10000 nM. Compound `CN1CCN(c2ccc(-c3cc4c(cc3-c3ccc(F)cc3F)C(=O)NC4)cc2)CC1` [Compound 113, 6-(2,4-difluorophenyl)-5-(4-(4-methylpiperazin-1-yl)phenyl)isoindolin-1-one] has an IC50 greater than 10000 nM. In the case of `O=C1NCc2cc(-c3c[nH]nc3C(F)(F)F)c(-c3ccc(F)cc3F)cc21` [Compound 114, 6-(2,4-difluorophenyl)-5-(3-(trifluoromethyl)-1H-pyrazol-4-yl)isoindolin-1-one], the IC50 is reported as greater than 10000 nM.
